Data as given in patent US20130281467A1, “NOVEL MICROBICIDES” (SYNGENTA PARTICIPATIONS AG, priority 2010, published 2013).

Legend:
[1] = tested on: Botryotinia fuckeliana (Botrytis cinerea); test: Fungicidal activity against Botryotinia fuckeliana (Botrytis cinerea) / liquid culture (gray mould); assay type: cell-based; conditions: 3-4 days after application, read-out: disease control (inhibition of growth, photometrically)
How it was run: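 Conidia from cryogenic storage were mixed into Vogels broth and added to wells containing compound in DMSO. Plates incubated at 24 °C; growth inhibition read photometrically 3–4 days after application.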

Pyrenophora teres = test: Fungicidal activity against Pyrenophora teres / barley / leaf disc preventative (net blotch); assay type: in vivo; conditions: foliar, barley leaf segments, inoculated 2 days after application, compared to untreated, read-out: disease control
How it was run: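 Barley leaf segments (cv. Hasso) on agar sprayed with formulated compound in water, then spore-inoculated 2 days later. Kept at 20 °C, 65% rh, 12 h light/dark; disease control versus untreated scored 5-7 days after application.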

[2] = tested on: Blumeria graminis f. Sp. tritici (Erysiphe graminis f. sp. tritici); test: Fungicidal activity against Blumeria graminis f. sp. tritici / wheat / leaf disc preventative (powdery mildew on wheat); assay type: in vivo; conditions: foliar, wheat leaf segments, inoculated 1 day after application, compared to untreated, read-out: disease control
How it was run: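 Wheat cv. Kanzler leaf segments on agar were sprayed with the formulated compound diluted in water and inoculated with powdery mildew 1 day later. Incubation was at 20 °C and 60% rh: 24 h dark, then 12 h light/12 h dark. Percent disease control versus untreated was scored 6–8 days after application.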

[3] = tested on: Phaeosphaeria nodorum (Septoria nodorum); test: Fungicidal activity against Phaeosphaeria nodorum (Septoria nodorum) / wheat / leaf disc preventative (glume blotch); assay type: in vivo; conditions: Parastagonospora nodorum, foliar, wheat leaf segments, inoculated 2 days after application, compared to untreated, read-out: disease control
How it was run: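 Wheat cv. Kanzler leaf segments on agar, sprayed with diluted formulated compound, then spore-inoculated 2 days later. Kept at 20 °C, 75% rh, 12 h light/12 h dark; percent disease control versus untreated scored once untreated discs show disease, 5–7 days after application.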

[4] = tested on: Mycosphaerella graminicola (Septoria tritici); test: Fungicidal activity against Mycosphaerella graminicola (Septoria tritici) / liquid culture (Septoria blotch); assay type: cell-based; conditions: Zymoseptoria tritici, 4-5 days after application, read-out: disease control (inhibition of growth, photometrically)
How it was run: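 Cryo-stored conidia were suspended in potato dextrose broth and added to test compound dispensed from DMSO solution. Plates were held at 24° C., and growth inhibition was measured photometrically 4-5 days after application.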

Gaeumannomyces graminis = test: Fungicidal activity against Gaeumannomyces graminis / liquid culture (take-all of cereals); assay type: cell-based; conditions: 4-5 days after application, read-out: disease control (inhibition of growth, photometrically)
How it was run: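 Cryostored mycelial fragments in potato dextrose broth added to 96-well plates with test compound in DMSO. Plates kept at 24° C; growth inhibition measured photometrically 4-5 days after application.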

[5] = tested on: Puccinia recondita f. sp. tritici; test: Fungicidal activity against Puccinia recondita f. sp. tritici / wheat / leaf disc preventative (brown rust); assay type: in vivo; conditions: foliar, wheat leaf segments, inoculated 1 day after application, compared to untreated, read-out: disease control
How it was run: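 Wheat leaf segments (cv. Kanzler) on agar sprayed with formulated compound in water, inoculated with spore suspension 1 day later. Incubated at 19° C, 75% rh, 12 h light/12 h dark; percent disease control versus untreated scored 7-9 days after application.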

[6] = tested on: Glomerella lagenarium (Colletotrichum lagenarium); test: Fungicidal activity against Glomerella lagenarium (Colletotrichum lagenarium) / liquid culture (anthracnose); assay type: cell-based; conditions: Colletotrichum orbiculare, 3-4 days after application, read-out: disease control (inhibition of growth, photometrically)
How it was run: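 Cryostored conidia mixed into potato dextrose broth were added to test compound in DMSO. Plates were incubated at 24° C. Growth inhibition was measured photometrically 3-4 days after application.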

[7] = tested on: Mycosphaerella arachidis (Cercospora arachidicola); test: Fungicidal activity against Mycosphaerella arachidis (Cercospora arachidicola) / liquid culture (early leaf spot); assay type: cell-based; conditions: 4-5 days after application, read-out: disease control (inhibition of growth, photometrically)
How it was run: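 Cryopreserved conidia in potato dextrose broth added to compound in DMSO in microtiter plates. Incubation at 24 °C; growth inhibition read photometrically 4-5 days after application.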

[8] = tested on: Thanatephorus cucumeris (Rhizoctonia solani); test: Fungicidal activity against Thanatephorus cucumeris (Rhizoctonia solani) / liquid culture (foot rot, damping-off); assay type: cell-based; conditions: 3-4 days after application, read-out: disease control (inhibition of growth, photometrically)
How it was run: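 Fungal mycelia fragments from fresh liquid culture were mixed into potato dextrose broth and added to test compounds supplied in DMSO. Incubation was at 24° C. Growth inhibition was read photometrically 3-4 days after application.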

[9] = tested on: Monographella nivalis (Microdochium nivale); test: Fungicidal activity against Monographella nivalis (Microdochium nivale) / liquid culture (foot rot cereals); assay type: cell-based; conditions: 4-5 days after application, read-out: disease control (inhibition of growth, photometrically)
How it was run: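 Conidia in potato dextrose broth added to microtiter wells holding test compound in DMSO. Incubated at 24° C.; growth inhibition read photometrically 4-5 days after application.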

Structure (SMILES) | inhibition at 200 ppm [1] [%] | pest or weed control at 200 ppm (Pyrenophora teres) [%] | pest or weed control at 200 ppm [2] [%] | pest or weed control at 200 ppm [3] [%] | inhibition at 200 ppm [4] [%] | inhibition at 200 ppm (Gaeumannomyces graminis) [%] | pest or weed control at 200 ppm [5] [%] | melting point [°C] | inhibition at 200 ppm [6] [%] | inhibition at 200 ppm [7] [%] | inhibition at 200 ppm [8] [%] | inhibition at 200 ppm [9] [%]
COc1ccc(OC)c(Cc2cccc(-c3ncc4c(n3)CCOC4)n2)c1 [Compound 22] | ≥ 80 | ≥ 80 | ≥ 80 | ≥ 80 | ≥ 80 | ≥ 80 | ≥ 80 | 286 to 288 | ≥ 80 | – | – | –
CC1(C)CCc2cnc(-c3cccc(Cc4ccccc4)n3)nc2C1 [Compound 11] | ≥ 80 | ≥ 80 | ≥ 80 | ≥ 80 | ≥ 80 | ≥ 80 | ≥ 80 | 226 to 228 | ≥ 80 | ≥ 80 | ≥ 80 | ≥ 80
CC1(C)CCc2cnc(-c3cccc(Cc4cccc(C#N)c4)n3)nc2C1 [Compound 17] | ≥ 80 | ≥ 80 | – | ≥ 80 | ≥ 80 | ≥ 80 | – | 222 to 223 | ≥ 80 | ≥ 80 | ≥ 80 | ≥ 80
CO/N=C1\CCc2nc(-c3cccc(Cc4ccccc4)n3)ncc2C1 [Compound 18] | ≥ 80 | ≥ 80 | ≥ 80 | ≥ 80 | ≥ 80 | ≥ 80 | ≥ 80 | 175 to 177 | ≥ 80 | ≥ 80 | ≥ 80 | –
c1ccc(Cc2cccc(-c3ncc4c(n3)CCOC4)n2)cc1 [Compound 2] | ≥ 80 | ≥ 80 | ≥ 80 | ≥ 80 | ≥ 80 | ≥ 80 | ≥ 80 | 244 to 245 | ≥ 80 | ≥ 80 | ≥ 80 | –
CC1(C)CCc2cnc(-c3cccc(Cc4cccc(Cl)c4)n3)nc2C1 [Compound 16] | ≥ 80 | ≥ 80 | – | ≥ 80 | ≥ 80 | – | – | 219 to 220 | ≥ 80 | ≥ 80 | – | ≥ 80
CC(c1ccccc1)c1cccc(-c2ncc3c(n2)CC(C)(C)CC3)n1 (centres unmarked) [Compound 45] | ≥ 80 | ≥ 80 | – | ≥ 80 | ≥ 80 | ≥ 80 | – | 136 to 138 | ≥ 80 | ≥ 80 | ≥ 80 | ≥ 80
COc1ccccc1Cc1cccc(-c2ncc3c(n2)CC(C)(C)CC3)n1 [Compound 14, 2-[6-(2-methoxybenzyl)-pyridin-2-yl]-7,7-dimethyl-5,6,7,8-tetrahydroquinazoline] | ≥ 80 | ≥ 80 | – | – | ≥ 80 | ≥ 80 | – | 251 to 252 | ≥ 80 | ≥ 80 | ≥ 80 | ≥ 80
Clc1ccc(Cc2cccc(-c3ncc4c(n3)CCCC4)n2)cn1 [Compound 1, 2-[6-(6-chloropyridin-3-ylmethyl)-pyridin-2-yl]-5,6,7,8-tetrahydroquinazoline] | ≥ 80 | ≥ 80 | ≥ 80 | ≥ 80 | ≥ 80 | ≥ 80 | ≥ 80 | 115 to 120 | ≥ 80 | ≥ 80 | ≥ 80 | ≥ 80
Cc1ccccc1Cc1cccc(-c2ncc3c(n2)CC(C)(C)CC3)n1 [Compound 15] | ≥ 80 | ≥ 80 | – | ≥ 80 | ≥ 80 | – | – | 259 to 260 | ≥ 80 | ≥ 80 | ≥ 80 | ≥ 80
Clc1cccc(Cc2cccc(-c3ncc4c(n3)CCOC4)n2)c1 [Compound 4] | ≥ 80 | ≥ 80 | ≥ 80 | ≥ 80 | ≥ 80 | ≥ 80 | ≥ 80 | 148 to 149 | ≥ 80 | ≥ 80 | ≥ 80 | ≥ 80
CC1(C)CCc2cnc(-c3cccc(Cc4ccccc4Cl)n3)nc2C1 [Compound 13] | ≥ 80 | – | – | ≥ 80 | ≥ 80 | – | – | 272 to 273 | ≥ 80 | ≥ 80 | ≥ 80 | ≥ 80
CO/N=C1\CCCc2nc(-c3cccc(Cc4ccccc4)n3)ncc21 [Compound 9] | ≥ 80 | ≥ 80 | ≥ 80 | ≥ 80 | – | ≥ 80 | ≥ 80 | 213 to 215 | ≥ 80 | ≥ 80 | – | ≥ 80
